Measurements: patent US20190388377A1, “COMPOSITIONS AND METHODS FOR THE TREATMENT OF LIVER DISEASES AND DISORDERS” (AXCELLA HEALTH INC., priority 2018, published 2019)

How the values were obtained:
[1] = system: primary human hepatocytes; assay: Intracellular triglyceride level after 72 h, colorimetric assay, Example 3; format: cell-based; details: for triglyceride level (in words): FFAs+TNFα, two healthy donors
Protocol: On day 2, cells were washed twice with DPBS 1× (Gibco) and maintained in: • a. Amino acid-free WEM (US Biologicals) supplemented with 11 mM Glucose (Sigma), 0.272 mM Sodium Pyruvate (Sigma), 1× P/S (Gibco) and containing a defined custom amino acid concentration based on the mean physiological concentrations in blood (1× HMDB WEM (−) supplemental amino acids); or • b. The same media described above 1×HMDB WEM (+) supplemental amino acids treatment dose at a 30× of HMDB amino acid concentration. Cells were maintained in the defined amino acids media (a. & b.) for 24 hours at 37° C., 5% CO2. Co-Treatment with Free Fatty Acids and Various Amino Acids Supplemental Treatments
After 24 h pre-treatment, cells maintained in the same media (a. & b.) described above 1×HMDB±supplemental amino acids were now exposed to free fatty acids (FFA) at 250 uM with a ratio of 2:1 (Oleate:Palmitate) supplemented with TNF-α (Thermofisher) at 1 ng/ml or vehicle. Cells with the FFAs+TNFα mixture±amino acids treatments were incubated for 72 hours at 37° C., 5% CO2 with a media change after the first 24 hours.
After 72 hours, cells were washed once with cold PBS 1× (Gibco), scrapped off and collected into 75 ul of standard diluent (Cayman). Collected cells were vortexed for 1 min at a 2500 rpm speed followed by two times sonication (Elmasonic sonicator) for 1 min each. Supernatants were collected for triglyceride analysis after centrifugation at 1000 rpm for 10 min at 4° C. Intracellular triglyceride level was assessed using triglyceride colorimetric assay kit (Cayman) and following manufacturer's recommendations. Data was normalized to the total amount of protein using Bicinchoninic Acid Protein Assay Kit (Sigma). Data is reported as median fold change from FFAs+TNFα condition, statistical analysis was done using t-Test.

[2] = system: Urea; assay: Urea production after 72 h by urea nitrogen (BUN) colorimetric assay, PHH model, Example 2; format: cell-based, human; details: FFA+TNFα
Protocol: (§1) PHH from two healthy human donors (Lonza, TRL) were seeded on day 0 at density of 6e04 cells in 96 well optical microplates (Thermofisher) in hepatocyte plating media (William's E medium, WEM) (Gibco) supplemented with 10% heat-inactivated FBS (Atlanta Bio), 2 mM Glutamax (Gibco), and 0.2% Primocin (InVivoGen) and incubated for 6 hours at 37° C., 5% CO2. After 6 hours, cells were washed twice and incubated overnight at 37° C., 5% CO2 with Hepatocytes defined medium (Corning) supplemented with 2 mM Glutamax (Gibco), and 1× Penicillin/Streptomycin. On day 1, cells were washed twice and incubated for 24 h in the hepatocyte culture media in the same conditions described above.
(§2) On day 2, cells were washed twice with DPBS 1× (Gibco) to remove excess amino acids and maintained in pretreatment media (1×HMDB, a defined custom amino acid concentration based on the mean physiological concentrations in blood, in WEM±supplemental amino acids): • a. Amino acid-free WEM (US Biologicals) supplemented with 11 mM Glucose (Sigma), 0.272 mM Sodium Pyruvate (Sigma), 1× P/S (Gibco) and containing 1×HMDB with no supplemental amino acids; or • b. The same media described above 1×HMDB WEM with supplemental amino acid and amino acid combination treatments at various concentrations. Cells were maintained in the defined media (a. & b.) for 24 hours at 37° C., 5% CO2. The HMDB values are published in the Human Metabolome Database (Wishart D S, Tzur D, Knox C, et al., HMDB: the Human Metabolome Database. Nucleic Acids Res. 2007 January; 35 (Database issue):D521-6. 17202168; which is hereby incorporated by reference in its entirety). Co-Treatment with Free Fatty Acids and Amino Acids Combination
(§3) After 24 h pre-treatment, cells maintained in the pretreatment media±supplemental amino acids (section (a. & b.) described above) were exposed to free fatty acids (FFA) at 250 uM with a ratio of 2:1 (Oleate:Palmitate) supplemented with TNF-α (Thermofisher) at 1 ng/ml. Cells were incubated with the FFAs mixture (FFAs+TNF-α)±supplemental amino acids treatments for 24 hours at 37° C., 5% CO2. After 24 hours incubation, media was removed for cytokine analysis and replaced by fresh media containing the same conditions described above (FFAs mixture±supplemental amino acids treatments). Cells were incubated for an additional 48 hours for a total of 72 hours of FFA and TNF-α stimulation. After 72 hours of incubation, media was removed for albumin and urea analysis and the cells were fixed for nuclei and lipid staining.
Urea was measured as an indicator of hepatocytes functionality by urea nitrogen direct assay (StanBio). Cell supernatant was added to the BUN color reagent and BUN acid reagent at 1(color):2(acid) ratio. Incubate the cell supernatant with BUN reagent for 12 min at 100° C. then for 5 min at 4° C. Read absorbance at 520 nm. Data was normalized to the control. Data is reported as median fold change from control, statistical analysis was done using t-Test.

[3] = system: Albumin; assay: Albumin secretion after 72 h by ELISA, PHH model, Example 2; format: cell-based, human; details: FFA+TNFα
Protocol: as §1, §2, §3
Albumin secretion was measured as a functionality test in primary human hepatocytes. Albumin was measured by ELISA (Human Albumin ELISA Quantitation set, Bethyl Laboratories) at 1/200 dilution in the sample diluent (Bethyl Laboratories). Data is reported as median fold change from control, statistical analysis was done using t-Test.

[4] = system: Human CCL2 (MCP-1); assay: MCP1 secretion by ELISA after 24 h, PHH model for NASH, Example 2; format: cell-based; details: FFA+TNFα
Protocol: as §1, §2, §3
Human CCL2 (MCP-1) was measured by ELISA (Human […] DuoSet ELISA, R&D Systems) at 1/20 dilution in 1× Reagent Diluent (Reagent Ancillary Kit 2, R&D Systems). MCP1 data in primary human hepatocytes treated with FFA+TNFα+supplemental amino acids was normalized to 1×HMDB WEM+FFA+TNFα baseline. Data is reported as median fold change from control, statistical analysis was done using t-Test.

[5] = system: primary human hepatocytes; assay: Intracellular lipid accumulation after 72 h by fluorescence microscopy, PHH model for NASH, Example 2; format: cell-based; details: FFA+TNFα; for Lipid Median (median fold change from control): 72 h
Protocol: as §1, §2, §3
After 72 hours, cells were washed twice in 100 ul PBS 1× (Gibco), fixed with 4% Paraformaldehyde, and washed twice with PBS 1× (100 ul). After fixation, lipids were stained with HCS LipidTOX Red Neutral (Thermofisher Scientific) diluted 1000× and nuclei were stained with Hoechst 3342 (Life Technologies) diluted to 4 ug/ml. The LipidTOX™ neutral lipid stain has an extremely high affinity for neutral lipid droplets that was detected by fluorescence microscopy using a high content imager (Molecular Devices). Data was normalized to the cell concentration determined by nuclei count. Images were analyzed and total lipid area was calculated using granularity module in MetaXpress 6 software. Data is reported as median fold change from control, statistical analysis was done using t-Test.

[6] = system: Procollagen III; assay: Procollagen III secretion by ELISA, TGFβ1-stimulated hepatic stellate cells, Example 4; format: cell-based, human; details: HSC, three donors
Protocol: (§4) Primary human hepatic stellate cells were obtained from Samsara Sciences. Cells from three different donors were grown in Complete HSC Medium to ˜80% confluence in T75 or T150 flasks below passage 10 were seeded into sterile, collagen I coated, 96-well optical plastic microplates (ThermoScientific) and incubated overnight at 37° C., 5% CO2 in a humidified incubator in DMEM with 2% Fetal Bovine Serum and 1% Antimycotic. […] After 24 hours of stimulus, supernatant was removed and used to measure Procollagen III and cells were then washed and fixed with 4% paraformaldehyde for further staining. Procollagen III, an important biomarker of fibrosis was measured by ELISA (Human PCIII Elisa Kit, G-Biosciences) following the manufacturer's recommendations. Fixed cells with 4% paraformaldehyde were permeabilized with 0.1% Triton X-100 then immunostained for alpha SMA and labeled for EdU incorporation.

[7] = system: alpha smooth muscle actin (αSMA); assay: HSC activation by alpha SMA immunostaining, TGFβ1-stimulated hepatic stellate cells; format: cell-based, human
Protocol: as §4, with “staining.” for “staining. Procollagen III, an important biomarker of fibrosis was measured by ELISA (Human PCIII Elisa Kit, G-Biosciences) following the manufacturer's recommendations. Fixed cells with 4% paraformaldehyde were permeabilized with 0.1% Triton X-100 then immunostained for alpha SMA and labeled for EdU incorporation.”
Procollagen III, an important biomarker of fibrosis was measured by ELISA (Human PCIII Elisa Kit, G-Biosciences) following the manufacturer's recommendations. Fixed cells with 4% paraformaldehyde were permeabilized with 0.1% Triton X-100 then immunostained for alpha SMA and labeled for EdU incorporation.
Cells were imaged using ImageXpress micro confocal high content imager (Molecular Devices). […] Image analysis was performed using MetaXpress version 6.2.3.733 (Molecular Devices).
Fixed cells immunostained for alpha smooth muscle actin (αSMA) were analyzed and stained area was normalized to total nuclei count. Fold change were calculated relative to the baseline amino acid (1×HMDB) condition stimulated with 3 ng/mL TGFβ1.

Structure (SMILES) | triglyceride level (in words) [1] | urea production (in words) ([2]; hepatocyte donor 1) | urea production (in words) ([2]; hepatocyte donor 2) | albumin secretion (in words) ([3]; hepatocyte donor 1) | albumin secretion (in words) ([3]; hepatocyte donor 2) | MCP1 secretion (in words) ([4]; hepatocyte donor 1) | MCP1 secretion (in words) ([4]; hepatocyte donor 2) | lipid accumulation (in words) ([5]; hepatocyte donor 1) | lipid accumulation (in words) ([5]; hepatocyte donor 2) | procollagen III secretion (in words) [6] | alpha SMA stained area (in words) [7] | Lipid Median (median fold change from control) ([5]; donor 1, AA Conc. 20X) | Triglyceride Level relative to the baseline FFA + TNF, Median ([1]; FFA + TNF, 72 h, two donors, AA Conc 1X, Nac/Car 0 mM) | Lipid Median (median fold change from control) ([5]; donor 1, AA Conc. 25X) | Lipid Median (median fold change from control) ([5]; donor 2, AA Conc. 30X)
C[N+](C)(C)C[C@H](O)CC(=O)[O-] [Car, L-carnitine] | reduces triglyceride level but the effect was less pronounced than the combinations described previously | No changes in urea production | slightly reduced urea production | did not reduce albumin secretion | reduced albumin secretion | did not reduce MCP1 secretion | did not affect MCP1 secretion | reduced lipid accumulation | reduced lipid accumulation but less than the previously described combinations | had no impact on procollagen III secretion | reduced the alpha SMA stained area | – | – | – | –
CC[C@H](C)[C@H](N)C(=O)O [I, L-isoleucine] | – | No changes in urea production | – | did not reduce albumin secretion | – | did not reduce MCP1 secretion | – | reduced lipid accumulation | – | had no impact on procollagen III secretion | – | −0.105 | – | – | –
CC(C)C[C@H](N)C(=O)O [L, L-leucine] | – | No changes in urea production | – | decreased albumin production at a higher level than the previously described amino acids | – | did not reduce MCP1 secretion | – | reduced lipid accumulation | – | had no impact on procollagen III secretion | – | −0.725 | – | – | –
NC(=O)CC[C@H](N)C(=O)O [Q, L-glutamine] | – | No changes in urea production | – | decreased albumin production at a higher level than the previously described amino acids | – | did not reduce MCP1 secretion | – | reduced lipid accumulation | – | decreased procollagen III secretion but at a lower extent than LIRNacCar and LIRQNacSCar | – | −0.588 | – | – | –
N=C(N)NCCC[C@H](N)C(=O)O [R, L-arginine] | – | induced urea production | – | did not reduce albumin secretion | – | did not reduce MCP1 secretion | – | did not reduce lipid accumulation | – | had no impact on procollagen III secretion | reduced the alpha SMA stained area | – | – | – | –
N[C@@H](CO)C(=O)O [S, L-serine] | didn't have an impact on triglycerides | No changes in urea production | slightly induce urea production | decreased albumin production at a higher level than the previously described amino acids | reduced albumin secretion | did not reduce MCP1 secretion | did not affect MCP1 secretion | reduced lipid accumulation | reduced lipid accumulation but less than the previously described combinations | had no impact on procollagen III secretion | – | – | −0.176 | −0.178 | −0.42
CC(C)[C@H](N)C(=O)O [V, L-Valine] | – | – | – | decreased albumin production at a higher level than the previously described amino acids | – | did not reduce MCP1 secretion | – | reduced lipid accumulation | – | had no impact on procollagen III secretion | – | −0.685 | – | – | –
